# Target: 4-hydroxyphenylpyruvate dioxygenase (Sus scrofa, UniProt Q02110)
# Assay: In vitro inhibition against of 4-Hydroxyphenylpyruvate dioxygenase (4-HPPD) from pig liver by the enol borate method
# Chain of 4-hydroxyphenylpyruvate dioxygenase (Q02110 whole entry): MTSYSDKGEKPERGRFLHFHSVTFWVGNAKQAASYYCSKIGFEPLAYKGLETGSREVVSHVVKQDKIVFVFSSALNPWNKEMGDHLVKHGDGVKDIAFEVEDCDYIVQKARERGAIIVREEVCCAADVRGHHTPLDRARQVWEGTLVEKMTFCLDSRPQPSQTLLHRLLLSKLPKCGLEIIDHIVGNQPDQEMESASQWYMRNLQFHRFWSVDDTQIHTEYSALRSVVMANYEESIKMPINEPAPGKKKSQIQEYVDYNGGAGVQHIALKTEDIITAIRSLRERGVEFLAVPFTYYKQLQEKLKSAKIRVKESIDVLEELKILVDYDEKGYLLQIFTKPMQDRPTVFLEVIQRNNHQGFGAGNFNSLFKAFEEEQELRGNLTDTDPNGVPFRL
row,Compound,IC50
1,COC(=O)CC12OC1C(=O)C(OC)=CC2=O (stereo unspecified),500 µM
2,COC(=O)COc1ccc(O)cc1,223 µM
3,C=C(c1ccccc1)C(O)C(=O)OC (stereo unspecified),> 900 µM
4,C=C(c1ccccc1)C(O)C(=O)O (stereo unspecified),> 900 µM
5,CCOC(=O)C(C)Oc1ccc(O)cc1 (stereo unspecified),588 µM
6,O=C(O)COc1ccc(O)cc1,6 µM

# The remaining molecules from weak to strong by IC50, led by results:
row,IC50,Compound
1,150 µM,COC(=O)CC1=CC(=O)C(OC)=CC1=O
2,120 µM,COC(=O)C1OC1(C)c1ccccc1 (stereo unspecified)
3,93 µM,CC(Oc1ccc(O)cc1)C(=O)O (stereo unspecified)
4,73 µM,CCOC(=O)COc1ccc(O)cc1
5,0.5 µM,O=C1OCC(c2ccccc2)=C1O

# From ChEMBL document CHEMBL1135163, “Design, synthesis, and evaluation of postulated transient intermediate and substrate analogues as inhibitors of 4-hydroxyphenylpyruvate dioxygenase” (Bioorg Med Chem Lett, 2002)
